Results from patent US20210100245A1, “SYNERGISTIC FORMULATIONS FOR CONTROL AND REPELLENCY OF BITING ARTHROPODS” (BEDOUKIAN RESEARCH, INC., priority 2019, published 2021).

System: Adult female Aedes aegypti
Assay: Membrane feeder repellency test: mosquitoes probing treated collagen membranes over blood-filled wells
Type: in vivo
Details: for Test results (quantity not named; percentage from mosquito probing counts): 6.25 μl on collagen membrane, probes counted every 2 min for 20 min; for Test results, percentage relative to 0.3 wt % DEET in the same test: total repellent 0.30%, relative to 0.3 wt % DEET (=100%)
Protocol: Adult female Aedes aegypti were obtained from the i2LResearch USA, Inc. colony. Two hundred fifty (250) mosquitoes were used per replicate (seven replicates). Mosquitoes were at least 6 days old and had been deprived of sucrose solution for at least 18 hours prior to testing.
An exposure container was used to present the mosquitoes with a choice of blood-filled wells that were covered with collagen membranes (3 cm in diameter). The collagen membranes were treated by pipetting 6.25 μI of the test treatment onto the appropriate membrane and spreading it evenly with the tip of the pipette.
Exposure container. A 30.5 cm×30.5 cm×30.5 cm container (rigid plastic frame and a sleeved entry on one side and a sliding trap door on the bottom). The container was supported by four (4 cm high) legs.
Membrane feeder. Five wells (3 cm in diameter×8 mm in depth) in line on a hollow plastic block (6 cm wide×22 cm long×3 cm deep). The plastic block fit into the bottom of the exposure container. Hoses mounted on either end of the membrane feeder carried warm water that was pumped from a water bath. The sliding plastic trap door in the bottom of the exposure container covered and uncovered the wells in the membrane feeder, allowing mosquitoes to access the blood-filled wells that were covered with treated collagen membranes.
Study set-up. The membrane feeder was connected to a heated water bath, and warm water passed through the feeder via a circulating pump so that the wells were warmed to 96-100° F. Seventy-two (72) mg of ATP (disodium salt) were added to 26 ml of bovine blood. Sodium citrate was also added to the blood during collection to prevent clotting. The blood was poured into the wells until it completely filled each well (meniscus slightly above the level of the well).
Circular pieces (3 cm in diameter) of collagen membrane were placed over each of the wells. Care was taken to eliminate all air bubbles from between the membrane and the surface of the blood. Once wells were prepared, the blood was allowed to warm until the membrane temperature reached […]. Temperature was confirmed using a surface thermometer.
Treatment and exposure to mosquitoes. Once the collagen membranes were placed over the blood-filled wells, they were treated as described above. The membranes were allowed to dry for five minutes. Then the exposure container was placed on the membrane feeder. The trap door in the floor of the container was slid back, exposing the mosquitoes to the membranes. The number of mosquitoes probing the membrane covering each well was recorded every two minutes for twenty minutes. If a minimum of 20 total control probes were not achieved in a replicate, the replicate was repeated.
The above procedures were repeated until seven acceptable replicates were completed. […]

Compound | Test results (quantity not named; percentage from mosquito probing counts) (concentration 0.15%) [%] | Test results (quantity not named; percentage from mosquito probing counts) (concentration 0.30%) [%] | Test results, percentage relative to 0.3 wt % DEET in the same test [%]
CC1CCC(C(C)C)C(OCC(O)CO)C1 (stereo not shown) [Coolact 10, menthoxypropane-1,2-diol] | 45.4 | 41.5 | 
CCN(CC)C(=O)c1cccc(C)c1 [DEET, N,N-diethyl-m-toluamide, reference compound] |  |  | 100.0
CCNC(=O)C1CC(C)CCC1C(C)C (stereo not shown) [WS3, N-ethyl-p-menthane-3-carboxamide] |  |  | 130.0
